Biological target: T1, human TREM2 (Homo sapiens, UniProt Q9NZC2)
T1 construct: expressed in transfected cells; host or cells: HEK293T-hTREM2 cells (HEK cell line expressing human TREM2 and DAP12)
Test: In vitro measurement of TREM2 activity using cellular phosphorylation of spleen tyrosine kinase (Syk), AlphaLisa, HEK293T-hTREM2 cells
Type: cell-based
Details: HEK293T cells expressing human TREM2 and DAP12, 45 min at room temperature
Experimental: In Vitro Measurement of Triggering Receptor Expressed on Myeloid Cells 2 Activity Using Cellular Phosphorylation of Spleen Tyrosine Kinase (“Syk”) Assays
Measurement of TREM2 agonist potency was done using a HEK cell line expressing human TREM2 and DAP12 (HEK293T-hTREM2 cells). Binding of small molecules to, and activation of, TREM2 increases the phosphorylation of Syk. The resultant levels of Syk phosphorylation are measured using a commercial AlphaLisa reagent kit. To perform the assay, HEK-hTREM2 cells were plated at 14,000 cells per well in a 384 well plate, in 25 μL of complete growth media and incubated at 37° C., 5% CO2 for 20-24 hours.
Prior to the assay, test compounds were diluted in the 384 well plates in assay buffer and allowed to equilibrate for 30 minutes. Growth media was removed from cell plates by inversion on blotting paper, and 25 μL of test articles in assay buffer was added to cells. Cells were incubated for 45 minutes at room temperature. After 45 minutes, assay buffer was removed and 10 μL of lysis buffer was added. Plates were shaken for 20 minutes at 350 RPM at room temperature. After complete lysis, AlphaLisa reagents were added to the lysate, and fluourescence intensity was measured using a Perkin Elmer Envision plate reader. Intensities were used to generate a standard curve, and % activation was calculated. Curve fitting was performed using Prism v9 software, log(agonist) vs response—variable slope (four parameters), and EC50s were calculated from the curve fit.
The results presented in Tables D and D-2 have been generated with the in vitro assay described above. This assay may be used to test any of the compounds described herein to assess and characterize a compound's ability to act as an agonist of TREM2.

T1 sequence (Q9NZC2 19-230): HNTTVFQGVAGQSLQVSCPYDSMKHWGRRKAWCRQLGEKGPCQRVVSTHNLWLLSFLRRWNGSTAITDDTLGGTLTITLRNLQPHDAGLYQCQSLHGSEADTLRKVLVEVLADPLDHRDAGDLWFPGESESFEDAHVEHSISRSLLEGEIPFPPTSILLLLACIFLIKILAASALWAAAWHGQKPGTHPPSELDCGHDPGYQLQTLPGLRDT
T1 sequence (O43914 22-113 partner): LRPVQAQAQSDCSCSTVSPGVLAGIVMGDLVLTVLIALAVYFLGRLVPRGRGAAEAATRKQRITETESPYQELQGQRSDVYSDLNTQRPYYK

SMILES	EC50 (Table D-2) [nM]	EC50 (Table D) [nM]
C[C@@H]1CN(c2cc3c(c(C4CCC(C(F)(F)F)CC4)n2)CN(C)C3=O)C[C@H](c2cnn(C3CC3)c2)O1 (mixture of isomers) [compound 227, 6-[(2S,6R)-2-(1-cyclopropylpyrazol-4-yl)-6-methyl-morpholin-4-yl]-2-methyl-4-[4-(trifluoromethyl)cyclohexyl]-3H-pyrrolo[3,4-c]pyridin-1-one]	50 to 500	
CN(C)c1nc2nc(C3CCO[C@@H](c4cnn(C5CC5)c4)C3)nc(-c3cc(F)ccc3F)c2s1 (mixture of isomers) [compound 104, 7-(2,5-difluorophenyl)-N,N-dimethyl-5-[rac-(2R)-2-(1-cyclopropylpyrazol-4-yl)tetrahydropyran-4-yl]thiazolo[4,5-d]pyrimidin-2-amine]		50 to 500
CN(C)c1nc2nc([C@@H]3CCO[C@@H](c4cnn(C5CC5)c4)C3)nc(-c3cc(F)c(Cl)cc3F)c2s1 (racemic) [compound 106, 7-(4-chloro-2,5-difluoro-phenyl)-N,N-dimethyl-5-[rac-(2R,4R)-2-(1-cyclopropylpyrazol-4-yl)tetrahydropyran-4-yl]thiazolo[4,5-d]pyrimidin-2-amine]		3000 to 100000
CN(C)c1nc2nc(C3CCO[C@@H](c4cnn(C5CC5)c4)C3)nc(-c3ccc(F)c(F)c3F)c2s1 (stereo in doubt) [compound 108, 5-[(2R,4S)-2-(1-cyclopropylpyrazol-4-yl)tetrahydropyran-4-yl]-N,N-dimethyl-7-(2,3,4-trifluorophenyl)thiazolo[4,5-d]pyrimidin-2-amine]		50 to 500
CN(C)c1nc2nc([C@H]3CCO[C@@H](c4ccc(=O)n(C)c4)C3)nc(-c3ccc(F)cc3F)c2s1 (stereo in doubt) [compound 119, 5-[(2R,4S)-4-[7-(2,4-difluorophenyl)-2-(dimethylamino)thiazolo[4,5-d]pyrimidin-5-yl]tetrahydropyran-2-yl]-1-methyl-pyridin-2-one]		50 to 500
CN(C)c1nc2nc([C@H]3CCO[C@H](c4ccc(=O)n(C)c4)C3)nc(-c3ccc(F)cc3F)c2s1 (stereo in doubt) [compound 121, 5-[(2S,4S)-4-[7-(2,4-difluorophenyl)-2-(dimethylamino)thiazolo[4,5-d]pyrimidin-5-yl]tetrahydropyran-2-yl]-1-methyl-pyridin-2-one]		50 to 500
CN(C)c1nc2nc(N3CCO[C@H](c4cnn(C5CC5)c4)C3)nc(-c3ccc(F)cc3F)c2s1 [compound 101, 5-[(2R)-2-(1-cyclopropylpyrazol-4-yl)morpholin-4-yl]-7-(2,4-difluorophenyl)-N,N-dimethyl-thiazolo[4,5-d]pyrimidin-2-amine]		50 to 500
CN(C)c1nc2nc([C@H]3CCO[C@@H](c4cnn(C5CC5)c4)C3)nc(-c3ccc(C(F)F)cc3F)c2s1 [compound 103, 5-[(2R,4S)-2-(1-cyclopropylpyrazol-4-yl)tetrahydropyran-4-yl]-7-[4-(difluoromethyl)-2-fluoro-phenyl]-N,N-dimethyl-thiazolo[4,5-d]pyrimidin-2-amine]		50 to 500
C[C@@H]1CN(c2cc(-c3ccc(F)cc3F)c3sccc3n2)C[C@H](c2cnn(C3CC3)c2)O1 [compound 111, (2S,6R)-2-(1-cyclopropylpyrazol-4-yl)-4-[7-(2,4-difluorophenyl)thieno[3,2-b]pyridin-5-yl]-6-methyl-morpholine]		500 to 3000
Cc1cc([C@@H]2C[C@H](c3nc(-c4ccc(F)cc4F)c4sc(N(C)C)nc4n3)CCO2)ccn1 [compound 115, 7-(2,4-difluorophenyl)-N,N-dimethyl-5-[(2S,4R)-2-(2-methyl-4-pyridyl)tetrahydropyran-4-yl]thiazolo[4,5-d]pyrimidin-2-amine]		500 to 3000

Results, then the compound that gave them:

EC50 (Table D-2) [nM]	EC50 (Table D) [nM]	SMILES
	≤ 50	CN(C)c1nc2nc(C3CCO[C@@H](c4cnn(C5CC5)c4)C3)nc(-c3ccc(F)c(F)c3F)c2s1 (stereo in doubt) [compound 107, 5-[(2R,4R)-2-(1-cyclopropylpyrazol-4-yl)tetrahydropyran-4-yl]-N,N-dimethyl-7-(2,3,4-trifluorophenyl)thiazolo[4,5-d]pyrimidin-2-amine]
	≤ 50	CN(C)c1nc2nc([C@@H]3CCO[C@H](c4ccc(=O)n(C)c4)C3)nc(-c3ccc(F)cc3F)c2s1 (stereo in doubt) [compound 120, 5-[(2S,4R)-4-[7-(2,4-difluorophenyl)-2-(dimethylamino)thiazolo[4,5-d]pyrimidin-5-yl]tetrahydropyran-2-yl]-1-methyl-pyridin-2-one]
	≤ 50	CN(C)c1nc2nc(N3CCO[C@@H](c4cnn(C5CC5)c4)C3)nc(-c3ccc(F)cc3F)c2s1 [compound 100, 5-[(2S)-2-(1-cyclopropylpyrazol-4-yl)morpholin-4-yl]-7-(2,4-difluorophenyl)-N,N-dimethyl-thiazolo[4,5-d]pyrimidin-2-amine]
	≤ 50	C[C@@H]1CN(c2nc(-c3ccc(C(F)F)cc3F)c3sc(N(C)C)nc3n2)C[C@H](c2cnn(C3CC3)c2)O1 [compound 102, 5-[(2S,6R)-2-(1-cyclopropylpyrazol-4-yl)-6-methyl-morpholin-4-yl]-7-[4-(difluoromethyl)-2-fluoro-phenyl]-N,N-dimethyl-thiazolo[4,5-d]pyrimidin-2-amine]
	≤ 50	CN(C)c1nc2nc([C@H]3CCO[C@@H](c4cnn(C5CC5)c4)C3)nc(-c3cc(F)c(Cl)cc3F)c2s1 [compound 105, 7-(4-chloro-2,5-difluoro-phenyl)-N,N-dimethyl-5-[(2R,4S)-2-(1-cyclopropylpyrazol-4-yl)tetrahydropyran-4-yl]thiazolo[4,5-d]pyrimidin-2-amine]
	≤ 50	C[C@@H]1CN(c2nc(-c3ccc(F)cc3F)c3sc(N4CCC[C@H]4C)nc3n2)C[C@H](c2cnn(C3CC3)c2)O1 [compound 109, (2S,6R)-2-(1-cyclopropyl-1H-pyrazol-4-yl)-4-(7-(2,4-difluorophenyl)-2-((R)-2-methylpyrrolidin-1-yl)thiazolo[4,5-d]pyrimidin-5-yl)-6-methylmorpholine]
	≤ 50	Cc1ccc(-c2nc(N3C[C@@H](C)O[C@@H](c4cnn(C5CC5)c4)C3)nc3nc(N(C)C)sc23)c(F)c1 [compound 110, 5-[(2S,6R)-2-(1-cyclopropylpyrazol-4-yl)-6-methyl-morpholin-4-yl]-7-(2-fluoro-4-methyl-phenyl)-N,N-dimethyl-thiazolo[4,5-d]pyrimidin-2-amine]
	≤ 50	C[C@@H]1CN(c2nc(-c3ccc(F)cc3F)c3sc(N4CCC[C@@H]4C)nc3n2)C[C@H](c2cnn(C3CC3)c2)O1 [compound 112, (2S,6R)-2-(1-cyclopropylpyrazol-4-yl)-4-[7-(2,4-difluorophenyl)-2-[(2S)-2-methylpyrrolidin-1-yl]thiazolo[4,5-d]pyrimidin-5-yl]-6-methyl-morpholine]
	≤ 50	CC(C)c1nc2nc(N3C[C@@H](C)O[C@@H](c4cnn(C5CC5)c4)C3)nc(-c3ccc(F)cc3F)c2s1 [compound 113, (2S,6R)-2-(1-cyclopropyl-1H-pyrazol-4-yl)-4-(7-(2,4-difluorophenyl)-2-isopropylthiazolo[4,5-d]pyrimidin-5-yl)-6-methylmorpholine]
	≤ 50	CCCc1nc2nc(N3C[C@@H](C)O[C@@H](c4cnn(C5CC5)c4)C3)nc(-c3ccc(F)cc3F)c2s1 [compound 114, (2S,6R)-2-(1-cyclopropyl-1H-pyrazol-4-yl)-4-(7-(2,4-difluorophenyl)-2-propylthiazolo[4,5-d]pyrimidin-5-yl)-6-methylmorpholine]
